Entries after “also recorded” stand apart in the source; their conditions may differ.
Key:
[1] = tested on: MB49 bladder cancer cells; assay: Tumor growth inhibition by peptide vaccines in the mouse bladder cancer treatment model; assay type: in vivo, C57BL/6 mice; settings: 3×10^5 MB49 cells s.c. on Day 0; peptide 100 μg/100 μL + CpG ODN 1826 10 μM s.c. on day 3, 6, 9, 12, 15, 18, 21; tumor size every 3 days; vs DPBS and CpG groups
Experimental: Cancer cells and animal model: MB49 bladder cancer cells were grown in DMEM containing 10% FBS (Fetal Bovine Serum, Gibco, 10099141C) and 1% PS (Penicillin-Streptomycin-Glutamine, Gibco, 10378016). 3×10^5 MB49 cancer cells were resuspended in 100 μL of DPBS and injected subcutaneously into a lower back of male C57BL/6 mice (6-8 weeks old), respectively to construct a mouse bladder cancer treatment model. After the initial implantation of tumors, the mice developed tumors around 5 days, and after tumor formation, the tumor growth was monitored every other 3 days, and a long diameter (a) and a short diameter (b) of the tumor were measured with a vernier caliper, and the size of each solid tumor was calculated according to the solid tumor size V=axbxb/2, and a tumor growth curve was plotted. […]
FIG. 2 is a graph showing the detection results of a tumor growth inhibition assay of antigenic epitope peptides derived from various genes tested. […] The tumor size in the mice was detected every 3 days.
FIG. 3 is a graph showing the detection results of testing the inhibitory effect of mixed peptide vaccines on tumor growth after vaccines are prepared by mixing the effective antigenic epitope peptides. […] The tumor size in the mice was detected every 3 days. […]

[2] = tested on: splenocytes (IFN-γ secreting T cells); assay: IFN-γ ELISPOT of splenocytes co-cultured with peptides; assay type: cell-based; settings: splenocytes of immunized mice, 5×10^5/well, co-cultured with peptide (10 μg) for 20 h; vs DPBS and CpG groups
Experimental: Isolate splenocytes: Spleens were gently mashed and filtered through a 70-μm strainer (Falcon, Corning, Germany), and then collected into a 15 mL centrifuge tube. After adding 1 mL erythrocyte lysis buffer and washing in PBS, cells were collected for ELISPOT assay.
Enzyme-linked immunospot assay (ELISPOT): splenocytes were isolated according to the above method and were co-cultured with different polypeptides (10 μg) at 5×10^5/well for 20 h. The size and number of IFN-γ positive spots were calculated by using Adobe Photoshop CS6 software.
FIGS. 5A and 5B is a graph showing the detection results of the ability of specific T cells to secrete IFN-γ induced by tumor antigen epitope peptides. In FIGS. 5A and 5B, the experimental mice were euthanized, the monocytes derived from spleens were co-cultured with different peptides for 20 h to detect the secretion of IFN-γ by ELISPOT assay according to the manufacturer's instructions. Spleens were gently mashed and monocytes were isolated using a lymphocyte separation medium. The monocytes were incubated into wells of an ELISPOT plate and stimulated synchronously. The cells were incubated in an incubator at 37° C. and cytokines were captured. The number of T cells specifically secreting IFN-γ in splenocytes of the immunized mice can be detected by detecting the formation of spots.

Sequence | Inhibition of tumor growth (tumor size) [1] | Specific T-cell response (IFN-γ secretion, ELISPOT) [2]
FYMMPVNSEVM [NUF-2] | can effectively inhibit the growth of bladder cancer; also recorded: significantly inhibited the growth of bladder cancer; also recorded: most significant tumor-inhibiting effects | can strongly stimulate the immune response of specific T cells; also recorded: significant T-cell responses; also recorded: strongest T-cell response
VHLAKSLPL [CENPM] | partial tumor growth inhibitory effect; also recorded: did not show significant tumor inhibition; also recorded: does not show strong anti-tumor effects | can strongly stimulate the immune response of specific T cells; also recorded: significant T-cell responses; also recorded: can induce T-cell responses

Reference: patent publication US20240398919A1, “EPITOPE PEPTIDE FOR TUMOR-ASSOCIATED ANTIGEN AND USE THEREOF” (SHENZHEN INSTITUTES OF ADVANCEDTECHNOLOGY CHINESE ACADEMY …, priority 2023, published 2024)
